{"source": "patent US20110200693A1", "about": "“INCREASING THE EFFICIENCY OF UTILIZATION OF INGESTED CREATINE” (priority 2007, published 2011)", "key": {"[1]": {"details": "doses from 8 g/d to 21 g/d during 1 to 14 days; cited from earlier work"}, "[2]": {"assay": "Plasma creatine kinetics after a single ingestion of 2 g creatine (one-open compartmental model)", "format": "in vivo, human", "details": "2 g creatine oral, not influenced by the form ingested", "method": "The health status questionnaire was filled in again.\nVenous blood was collected on heparin as an anticoagulant. The tubes were placed immediately on ice and centrifuged at 3000 g for 6 min at 4° C. […] NaOH 0.1M (90 μL) was added to supernatant (300 μL) to obtain a pH value of about 7.8. Samples were stored at −20° C.\nUsing a Marquardt algorithm, all kinetics were fitted with the following equation: […]\nThis equation corresponds to a one-open compartmental model in which ka, kel and tlag are the primary parameters. Knowing their value, new kinetic parameters of plasma creatine were calculated:\nSince the bioavailability (F) may not be measured, only the apparent volume of distribution and the apparent clearance can be estimated:\nVd: the apparent volume of distribution (Vd=V/F, L)"}}, "data": [{"molecule": "CN(CC(=O)O)C(=N)N", "note": "[creatine]", "values": [{"measurement": "fraction of ingested creatine excreted in urine", "setting": "[1]", "result": "33 to 77 % of the original dose"}, {"measurement": "apparent volume of distribution relative to body mass", "setting": "[2]", "result": "about 75 % of body mass"}]}]}
